The text below walks through data of US5652359A, “Oligonucleotides containing n-methyl thiolated bases having antiviral activity” (Epoch Pharmaceuticals, Inc., priority 1993, dated 1997).

Values after ≈ are worked out from the molar mass of the structure shown.

The target of one data set is HSV-1 DNA polymerase (Human herpesvirus 1, UniProt P04293). Nature of the data set: HSV DNA polymerase assay, HSV-1. The data set is classed as biochemical. The conditions noted are these: activated calf thymus DNA, 30 minutes at 37° C. Here is the method: (§1) HSV DNA polymerases were assayed as described by Ostrander M., and Cheng Y. C., (1980) BIOCHEM. BIOPHYS. ACTA 609:232-245. The standard assay mixture (total volume 50 uL) contained 25 mM Tris-HCl pH 8, 10 mM MgCl2, 0.5 mM dithiothreitol, 0.5 mg/mL BSA, 200 mM KCl, 100 ug/mL activated calf thymus DNA, 0.1 mM each dATP, dCTP, dGTP, 5 uM [^3 H]dTTP (2 Ci/mmol), 4-5×10-^4 units of enzyme, and different drug concentrations. After incubation at 37° C. for 30 minutes, the reaction mixture was spotted on 2.4 cm Whatman GF/A glass fiber filter discs and trichloroacetic acid-insoluble radioactivity was measured.
(§2) One unit of DNA polymerase activity is defined as the amount of enzyme which catalyzes the incorporation of 1 nanomol of dTMP into activated DNA/30 min. […] IC50 is that concentration (expressed in micromoles) of the novel oligonucleotide which results in 50% inhibition of the enzyme.

The next data set deals with T1, HSV-2 DNA polymerase (Human herpesvirus 2, UniProt P89453).
T1 sequence (P89453 1-1240): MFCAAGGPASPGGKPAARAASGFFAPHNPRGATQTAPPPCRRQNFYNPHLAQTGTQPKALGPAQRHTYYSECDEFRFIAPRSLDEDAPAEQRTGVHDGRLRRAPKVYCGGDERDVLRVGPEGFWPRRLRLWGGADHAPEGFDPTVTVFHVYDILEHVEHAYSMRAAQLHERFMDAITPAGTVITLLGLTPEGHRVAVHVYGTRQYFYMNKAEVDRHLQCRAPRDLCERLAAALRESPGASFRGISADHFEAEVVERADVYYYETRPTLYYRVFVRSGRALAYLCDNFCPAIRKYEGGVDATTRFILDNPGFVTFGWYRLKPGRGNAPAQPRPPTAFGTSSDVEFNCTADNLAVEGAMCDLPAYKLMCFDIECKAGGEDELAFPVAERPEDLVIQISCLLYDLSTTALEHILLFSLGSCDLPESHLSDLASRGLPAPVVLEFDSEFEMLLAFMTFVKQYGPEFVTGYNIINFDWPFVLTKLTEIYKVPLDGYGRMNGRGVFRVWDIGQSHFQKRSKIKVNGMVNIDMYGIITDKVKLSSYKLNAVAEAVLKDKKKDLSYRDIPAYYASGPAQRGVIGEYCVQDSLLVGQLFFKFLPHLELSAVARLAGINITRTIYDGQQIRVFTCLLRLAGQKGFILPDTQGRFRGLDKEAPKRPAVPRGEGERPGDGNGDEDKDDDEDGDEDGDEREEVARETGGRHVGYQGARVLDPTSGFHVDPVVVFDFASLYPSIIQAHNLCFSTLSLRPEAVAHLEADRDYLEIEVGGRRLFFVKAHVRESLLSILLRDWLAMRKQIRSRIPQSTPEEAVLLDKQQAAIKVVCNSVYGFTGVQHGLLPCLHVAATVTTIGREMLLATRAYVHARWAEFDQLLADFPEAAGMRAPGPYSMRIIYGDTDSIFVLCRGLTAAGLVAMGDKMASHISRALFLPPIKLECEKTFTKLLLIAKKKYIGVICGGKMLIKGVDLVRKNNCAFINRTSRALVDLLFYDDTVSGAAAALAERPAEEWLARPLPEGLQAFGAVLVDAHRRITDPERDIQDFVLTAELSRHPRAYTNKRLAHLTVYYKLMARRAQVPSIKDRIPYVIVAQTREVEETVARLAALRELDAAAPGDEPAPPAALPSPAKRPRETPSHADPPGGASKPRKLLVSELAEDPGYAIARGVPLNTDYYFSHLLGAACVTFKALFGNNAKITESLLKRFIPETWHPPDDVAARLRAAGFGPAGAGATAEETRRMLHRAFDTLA
Nature of the data set: HSV DNA polymerase assay, HSV-2. In kind it is biochemical. The conditions noted are these: activated calf thymus DNA, 30 minutes at 37° C. Here is the method: as §1, §2

Data set [1] addresses T2, HIV-1 reverse transcriptase (RT) (Human immunodeficiency virus type 1 group M subtype B, UniProt P04585).
T2 construct: as a 66 and 51 kDa protein dimer; made in house; host or cells: bacteria
Nature of the data set: HIV reverse transcriptase assay, HIV-1. The data set is classed as biochemical. Conditions: RNA-dependent enzyme assay, 30 minutes at 37° C. Here is the method:
HIV-1 reverse transcriptase (RT) was expressed from a recombinant plasmid in bacteria as a 66 and 51 kDa protein dimer as described by D'Aquila R. T. and Summers W. C., (1989) J. ACQUIRED IMMUNE DEFIC SYNDR 2:579-587.
The standard reaction mixture for the RNA-dependent enzyme assays contained in a 50 uL volume: 50 mM Tris-HCl, pH 7.8, 50 mM KCl, 6 mM MgCl2, 0.1 mg/mL heat-inactivated bovine serum albumin, 1 mM dithiothreitol, 0.5 0D260 units/mL template-primer Poly(rC) oligo(dG)12-18, 10 uM [^3 H]dGTP and 3.3×10^-3 units of HIV-1 RT. A unit was defined as the amount of enzyme necessary to incorporate 1 nanomol of [^3 H]dTMP into the Poly(rA)-oligo(dT)10 template in 1.0 min at 37° C. The samples were incubated for 30 minutes at 37° C., and all reactions were carried out in the linear range. Aliquot of 40 uL were spotted on glass fiber filters (Whatman GF/A) and processed for determination of trichloroacetic acid-insoluble radioactivity as described by Cheng Y. C., Dutschman G. E., Bastow K. F., Sarngadharan M. G., and Ting R. Y. C. (1987) J. BIOL CHEM 262:2187-2189. Poly(rA)-oligo(dT)10was used as template-primer.
Table 4 indicates the results obtained in this assay with examplary oligonucleotides of the invention. The oligonucleotides are identified by their respective "compound number".

Data set [2] addresses T3, HIV-2 reverse transcriptase (Human immunodeficiency virus type 2 subtype A, UniProt P04584).
T3 construct: HIV REVERSE TRANSCRIPTASE ASSAY
As to the kind of experiment: HIV reverse transcriptase assay, HIV-2. In kind it is biochemical. Conditions: RNA-dependent enzyme assay, 30 minutes at 37° C.

In data set [3] the test system is Human cytomegalovirus (HCMV), strain AD-169. Nature of the data set: In vitro human cytomegalovirus inhibition (plaque) assay in MRC-5 cells. In kind it is cell-based. An excerpt: (§3) Cells MRC-5, an immortalized line of diploid, human ([…]) embryonic lung cells were used. These can be obtained from the American Type Culture Collection, Rockville, Md.
Virus Human cytomegalovirus (HCMV), strain AD-169 were used. These can be obtained from the American Type Culture Collection, Rockville, Md.
Medium Growth medium for the MRC-5 cells consisted of Basal Medium Eagle (BME) (GIBCO BRL, Research Products Division, Life Technologies, Inc., Grand Island, N.Y. was the source of all media) with 10% fetal bovine serum (FBS) (Hyclone Laboratories, Logan Utah), 0.035% NaHCO3. Antibiotics were not used in the growth media. Test medium for dilution of HCMV and for preparation and dilution of compounds for the experiments was DMEM, 2% FBS, 0.1% NaHCO3, 50 μg gentamicin/ml.
All compounds were prepared and diluted to the concentrations indicated in test medium. Growth medium was decanted from established monolayers of MRC-5 cells in 24-well tissue culture plates (Corning Glass Works, Corning, N.Y.). One ml of virus, diluted in test medium, was placed in each well except those to be used for cell controls. One ml of sterile test medium was placed in each of these cell control wells. Virus was allowed to adsorb to the cells while plates were centrifuged at 2200 rpm for 30 minutes at room temperature. Medium was aspirated from each well of the plates and 0.8 ml of the proper compound dilution was placed in each of the test wells (2 wells/dilution). Test medium without compound was added (0.8 ml/well) to each cell control and virus control well. Plates were placed in an incubator at 37° C. in a moist atmosphere of 5% CO2, 95% air until plaques could be distinguished in the virus control wells. […] After 15 minutes, the stain was aspirated, the plates were rinsed in running tap water until the water was clear, and the plates were inverted and dried at room temperature. Plaques were counted by use of a dissecting microscope.
ED50 and CD50 values were calculated by regression analysis of the viral plaque data and the visual cell toxicity data, respectively. […] CD50 is the concentration halfway between those at which 100% and 0% cytotoxicity are seen.

The nature of data set [4]: Visual cell toxicity in MRC-5 cells (HCMV assay). The data set is classed as cell-based. The conditions noted are these: human, previous data, read-out: CD50 (cytotoxicity). The protocol: as §3
All compounds were prepared and diluted to the concentrations indicated in test medium. Growth medium was decanted from established monolayers of MRC-5 cells in 24-well tissue culture plates (Corning Glass Works, Corning, N.Y.). One ml of virus, diluted in test medium, was placed in each well except those to be used for cell controls. One ml of sterile test medium was placed in each of these cell control wells. Virus was allowed to adsorb to the cells while plates were centrifuged at 2200 rpm for 30 minutes at room temperature. Medium was aspirated from each well of the plates and 0.8 ml of the proper compound dilution was placed in each of the test wells (2 wells/dilution). Test medium without compound was added (0.8 ml/well) to each cell control and virus control well. Plates were placed in an incubator at 37° C. in a moist atmosphere of 5% CO2, 95% air until plaques could be distinguished in the virus control wells. […] Plaques were counted by use of a dissecting microscope.
ED50 and CD50 values were calculated by regression analysis of the viral plaque data and the visual cell toxicity data, respectively. […]

Sequence of HSV-1 DNA polymerase (P04293 whole entry): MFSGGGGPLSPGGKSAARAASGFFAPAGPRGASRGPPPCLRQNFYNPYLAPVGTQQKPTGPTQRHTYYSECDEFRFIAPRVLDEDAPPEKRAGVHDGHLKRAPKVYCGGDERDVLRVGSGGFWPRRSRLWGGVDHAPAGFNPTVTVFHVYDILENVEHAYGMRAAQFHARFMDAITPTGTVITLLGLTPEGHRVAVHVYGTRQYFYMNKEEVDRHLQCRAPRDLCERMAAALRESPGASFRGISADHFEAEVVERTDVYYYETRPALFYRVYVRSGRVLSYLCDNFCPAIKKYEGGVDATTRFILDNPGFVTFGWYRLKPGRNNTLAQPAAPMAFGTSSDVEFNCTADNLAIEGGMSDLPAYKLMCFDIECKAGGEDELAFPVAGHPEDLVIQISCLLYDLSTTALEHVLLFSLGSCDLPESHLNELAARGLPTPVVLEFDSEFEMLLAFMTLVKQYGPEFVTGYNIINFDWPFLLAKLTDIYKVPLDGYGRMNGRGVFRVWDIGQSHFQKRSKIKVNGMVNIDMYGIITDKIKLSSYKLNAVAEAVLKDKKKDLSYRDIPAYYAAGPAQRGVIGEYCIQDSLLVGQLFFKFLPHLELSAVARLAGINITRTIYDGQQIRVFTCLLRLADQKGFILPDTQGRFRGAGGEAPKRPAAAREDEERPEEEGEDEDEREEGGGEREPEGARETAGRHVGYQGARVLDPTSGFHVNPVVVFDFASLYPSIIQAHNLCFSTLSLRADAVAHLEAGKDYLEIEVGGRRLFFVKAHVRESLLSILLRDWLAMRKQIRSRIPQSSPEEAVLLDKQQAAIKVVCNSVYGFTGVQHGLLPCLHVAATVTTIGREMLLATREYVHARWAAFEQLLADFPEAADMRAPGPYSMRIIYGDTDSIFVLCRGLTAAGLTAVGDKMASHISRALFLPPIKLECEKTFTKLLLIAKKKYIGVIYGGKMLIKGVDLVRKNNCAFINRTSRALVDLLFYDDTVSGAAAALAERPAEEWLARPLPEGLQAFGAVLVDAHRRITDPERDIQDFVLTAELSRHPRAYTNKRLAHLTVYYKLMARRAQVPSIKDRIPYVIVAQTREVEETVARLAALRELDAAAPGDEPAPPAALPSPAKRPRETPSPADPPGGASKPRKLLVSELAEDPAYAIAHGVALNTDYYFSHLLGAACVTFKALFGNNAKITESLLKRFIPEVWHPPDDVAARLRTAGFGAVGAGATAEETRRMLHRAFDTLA
T3 sequence (P04584 613-1171 limits assumed): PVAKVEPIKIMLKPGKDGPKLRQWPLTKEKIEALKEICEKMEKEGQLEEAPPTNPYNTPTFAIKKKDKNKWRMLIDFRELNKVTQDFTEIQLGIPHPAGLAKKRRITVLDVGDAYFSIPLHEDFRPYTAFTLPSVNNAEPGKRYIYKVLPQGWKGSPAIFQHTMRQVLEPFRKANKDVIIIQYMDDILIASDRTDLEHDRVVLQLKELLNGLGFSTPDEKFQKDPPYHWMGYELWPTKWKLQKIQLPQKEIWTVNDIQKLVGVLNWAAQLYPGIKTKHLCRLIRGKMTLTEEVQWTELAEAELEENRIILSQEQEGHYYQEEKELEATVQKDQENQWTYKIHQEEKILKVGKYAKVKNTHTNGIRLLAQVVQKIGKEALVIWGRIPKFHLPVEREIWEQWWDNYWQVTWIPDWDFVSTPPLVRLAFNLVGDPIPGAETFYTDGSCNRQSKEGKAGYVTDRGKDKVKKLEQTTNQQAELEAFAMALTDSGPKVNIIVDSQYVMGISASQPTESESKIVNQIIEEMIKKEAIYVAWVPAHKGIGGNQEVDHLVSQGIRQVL

Regarding 5[dCyd3P(S)(O)]27dCyd [SdC28], the IC50 (in general, the concentration that inhibits the measured activity by half) was determined as 30 nM on HSV-1 DNA polymerase, 90 nM at HSV-2 DNA polymerase, 15 ± 4 nM in data set [1] and 71 ± 11 nM in data set [2].
As for `Nc1nc(O)c2ncn(COC(CO)CO)c2n1` [DHPG, Ganciclovir], the “# of plaques” value in data set [3] (0.32 μg/ml) was 39.5; in data set [3] (1.0 μg/ml), 33.5; in data set [3] (3.2 μg/ml), 10.5; in data set [3] (10 μg/ml), 0.0. In addition, the “Therapeutic Index TI = CD50/ED50” value in data set [3] (HCMV, MRC-5 cells) was more than 588. For the same molecule, in data set [3] (Human betaherpesvirus 5, AD169, MRC5, 0.32 μg/ml, read-out: % reduction (plaques)), the inhibition at 0.32 µg/mL came out at 14%. The inhibition at 1 µg/mL in data set [3] (Human betaherpesvirus 5, AD169, MRC5, 1.0 μg/ml, read-out: % reduction (plaques)) was 27%. Moreover, the inhibition at 3.2 µg/mL in data set [3] (Human betaherpesvirus 5, AD169, MRC5, 3.2 μg/ml, read-out: % reduction (plaques)) amounted to 77%. In data set [3] (Human betaherpesvirus 5, AD169, MRC5, 10 μg/ml, read-out: % reduction (plaques)), the inhibition at 10 µg/mL amounted to 100%. For the same molecule, the EC50 in data set [3] (Human betaherpesvirus 5, AD169, MRC5, regression analysis of viral plaque data, read-out: ED50 (plaques reduced to 50% of virus controls)) turned out to be 1.7 µg/mL (≈ 6.66 µM). For the same molecule, the CC50 in data set [4] is more than 1000 µg/mL.
